Data set [1] deals with T1, human GLP-1 receptor (Homo sapiens, UniProt P43220).
T1 construct: expressed in transfected cells; host or cells: membranes of BHK cells (parent BHKTS13), clone FCW467-12A
The experiment in a line: Assay (I)(a) GLP-1 receptor activation, CRE luciferase reporter gene assay in BHK cells. The class given is cell-based. As to conditions: without presence of serum albumin; read-out: GLP-1R EC50 (pM) [Assay (I)(a)]. In a few lines:
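Stable BHK clone expressing human GLP-1 receptor with CRE-driven firefly luciferase, 5×10EE3 cells/well in medium with 2% ovalbumin and 0.2% Pluronic F-68. Compounds at 1×10EE-13 to 1×10EE-6 M final, 3 h at 37° C.; luminescence read, EC50 (pM) from four-parameter fit.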

The nature of data set [2]: Assay (III) ThT fibrillation assay for physical stability. As to conditions: 250 μM in 10 mM HEPES buffer, 37° C., shaking 960 rpm. It is filed as physicochemical. Summed up:
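Glucagon derivative at 250 μM in 10 mM HEPES pH 7.5 with 1 μM ThT was incubated at 37 °C under 960 rpm orbital shaking. Fluorescence (ex 444/em 485 nm) was read every 20 min and fitted for lag time (t0−2τ) and kapp (1/τ). Recovery was soluble peptide after centrifugation/filtration, by RP-HPLC, as percent of initial.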

Starred links: 1 amine or outer side, 2 acyl side, 3 side chain; linkers in the order of their positions; H or OH if unused. Non-standard residues stand in square brackets, D forms with d. Residues, ends and D or L forms follow the SMILES beside them. Groups on a side chain read outwards from the residue. *: point of attachment. C18 diacid = O=C(O)CCCCCCCCCCCCCCCCC(=O)*; γGlu = O=C(O)[C@H](CCC(=O)[*:2])N[*:1]; Ac4c = NC1(C(=O)O)CCC1; AEEA = NCCOCCOCC(=O)O; Aib = CC(C)(N)C(=O)O

T1 sequence (P43220 24-463): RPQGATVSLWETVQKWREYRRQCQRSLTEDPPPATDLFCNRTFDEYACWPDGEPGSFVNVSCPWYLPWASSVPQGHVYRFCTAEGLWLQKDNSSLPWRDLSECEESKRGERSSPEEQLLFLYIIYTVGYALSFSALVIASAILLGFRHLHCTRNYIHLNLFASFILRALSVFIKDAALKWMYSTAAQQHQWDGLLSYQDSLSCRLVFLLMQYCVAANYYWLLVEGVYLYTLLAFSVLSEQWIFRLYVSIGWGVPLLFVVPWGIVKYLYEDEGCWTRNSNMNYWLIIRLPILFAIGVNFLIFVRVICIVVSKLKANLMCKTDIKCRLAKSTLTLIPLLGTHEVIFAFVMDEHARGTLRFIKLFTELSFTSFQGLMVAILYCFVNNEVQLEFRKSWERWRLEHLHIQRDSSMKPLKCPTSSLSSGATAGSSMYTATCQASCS

On to `CC[C@H](C)[C@H](NC(=O)[C@H](CC(C)C)NC(=O)[C@H](Cc1c[nH]c2ccccc12)NC(=O)[C@H](CCCCNC(=O)COCCOCCNC(=O)COCCOCCNC(=O)CC[C@H](NC(=O)CC[C@H](NC(=O)CC[C@H](NC(=O)CCCCCCCCCCCCCCCCC(=O)O)C(=O)O)C(=O)O)C(=O)O)NC(=O)[C@@H](NC(=O)[C@H](Cc1ccccc1)NC(=O)[C@H](CCC(=O)O)NC(=O)[C@H](CCCNC(=N)N)NC(=O)[C@H](C)NC(=O)[C@H](CCCNC(=N)N)NC(=O)[C@H](CCCNC(=N)N)NC(=O)[C@H](C)NC(=O)[C@H](CC(=O)O)NC(=O)[C@H](CC(C)C)NC(=O)[C@H](Cc1ccc(O)cc1)NC(=O)[C@H](CCCCN)NC(=O)[C@H](CO)NC(=O)[C@H](Cc1ccc(O)cc1)NC(=O)[C@H](CC(=O)O)NC(=O)[C@H](CO)NC(=O)[C@@H](NC(=O)[C@H](Cc1ccccc1)NC(=O)[C@@H](NC(=O)CNC(=O)[C@H](CCC(N)=O)NC(=O)C(C)(C)NC(=O)[C@@H](N)Cc1c[nH]cn1)[C@@H](C)O)[C@@H](C)O)C(C)C)C(=O)N[C@@H](CO)C(=O)N[C@H](C(N)=O)[C@@H](C)O` [Chem. 4, N^ε24-[2-[2-[2-[[2-[2-[2-[[(4S)-4-carboxy-4-[[(4S)-4-carboxy-4-[[(4S)-4-carboxy-4-(17-carboxyheptadecanoylamino)butanoyl]amino]butanoyl]amino]butanoyl]amino]ethoxy]ethoxy]acetyl]amino]ethoxy]ethoxy]acetyl]-[Aib2,Ala16,Arg20,Glu21,Lys24,Ile27,Ser28]-Glucagon amide] (H-H[Aib]QGTFTSDYSKYLDARRAREFVK([AEEA-AEEA-γGlu-γGlu-γGlu-C18 diacid])WLIST-NH2; N-terminus assumed), for which the EC50 (usually the midpoint of the concentration-response curve) in data set [1] was found to be 3 pM.
As to `CC[C@H](C)[C@H](NC(=O)[C@H](CC(C)C)NC(=O)[C@H](Cc1c[nH]c2ccccc12)NC(=O)[C@H](CCC(N)=O)NC(=O)[C@@H](NC(=O)[C@H](Cc1ccccc1)NC(=O)[C@H](CC(=O)O)NC(=O)[C@H](CCC(N)=O)NC(=O)[C@H](C)NC(=O)[C@H](CCCNC(=N)N)NC(=O)[C@H](CCCNC(=N)N)NC(=O)[C@H](C)NC(=O)[C@H](CC(=O)O)NC(=O)[C@H](CC(C)C)NC(=O)[C@H](Cc1ccc(O)cc1)NC(=O)[C@H](CCCCN)NC(=O)[C@H](CO)NC(=O)[C@H](CC(C)C)NC(=O)[C@H](CC(=O)O)NC(=O)[C@H](CO)NC(=O)[C@@H](NC(=O)[C@H](Cc1ccccc1)NC(=O)[C@@H](NC(=O)CNC(=O)[C@H](CCC(N)=O)NC(=O)C(C)(C)NC(=O)[C@@H](N)Cc1c[nH]cn1)[C@@H](C)O)[C@@H](C)O)C(C)C)C(=O)N[C@@H](CCCCNC(=O)COCCOCCNC(=O)COCCOCCNC(=O)CC[C@H](NC(=O)CC[C@H](NC(=O)CC[C@H](NC(=O)CCCCCCCCCCCCCCCCC(=O)O)C(=O)O)C(=O)O)C(=O)O)C(=O)N[C@H](C(N)=O)[C@@H](C)O` [Chem. 7, N^ε28-[2-[2-[2-[[2-[2-[2-[[(4S)-4-carboxy-4-[[(4S)-4-carboxy-4-[[(4S)-4-carboxy-4-(17-carboxyheptadecanoylamino)butanoyl]amino]butanoyl]amino]butanoyl]amino]ethoxy]ethoxy]acetyl]amino]ethoxy]ethoxy]acetyl]-[Aib2,Leu10,Ala16,Ile27,Lys28]-Glucagon amide] (H-H[Aib]QGTFTSDLSKYLDARRAQDFVQWLIK([AEEA-AEEA-γGlu-γGlu-γGlu-C18 diacid])T-NH2; N-terminus assumed), the EC50 in data set [1] is 2 pM.
For `CC[C@H](C)[C@H](NC(=O)[C@H](CC(C)C)NC(=O)[C@H](Cc1c[nH]c2ccccc12)NC(=O)[C@H](CCC(N)=O)NC(=O)[C@@H](NC(=O)[C@H](Cc1ccccc1)NC(=O)[C@H](CCC(=O)O)NC(=O)[C@H](CCCNC(=N)N)NC(=O)[C@H](C)NC(=O)[C@H](CCCNC(=N)N)NC(=O)[C@H](CCCNC(=N)N)NC(=O)[C@H](CO)NC(=O)[C@H](CCC(=O)O)NC(=O)[C@H](CC(C)C)NC(=O)[C@H](Cc1ccc(O)cc1)NC(=O)[C@H](CCCCN)NC(=O)[C@H](CO)NC(=O)[C@H](CC(C)C)NC(=O)[C@H](CC(=O)O)NC(=O)[C@H](CO)NC(=O)[C@@H](NC(=O)[C@H](Cc1ccccc1)NC(=O)[C@@H](NC(=O)CNC(=O)[C@H](CCC(N)=O)NC(=O)C1(NC(=O)[C@@H](N)Cc2c[nH]cn2)CCC1)[C@@H](C)O)[C@@H](C)O)C(C)C)C(=O)N[C@@H](CCCCNC(=O)CNC(=O)[C@H](CO)NC(=O)[C@H](CCC(=O)O)NC(=O)CNC(=O)[C@H](CO)NC(=O)CC[C@H](NC(=O)CC[C@H](NC(=O)CCCCCCCCCCCCCCCCC(=O)O)C(=O)O)C(=O)O)C(=O)N[C@H](C(N)=O)[C@@H](C)O` [Chem. 16, N^ε28-[2-[[(2S)-2-[[(2S)-4-carboxy-2-[[2-[[(2S)-2-[[(4S)-4-carboxy-4-[[(4S)-4-carboxy-4-(17-carboxyheptadecanoylamino)butanoyl]amino]butanoyl]amino]-3-hydroxypropanoyl]amino]acetyl]amino]butanoyl]amino]-3-hydroxypropanoyl]amino]acetyl]-[Acb2,Leu10,Glu15,Arg20,Glu21,Ile27,Lys28]-Glucagon amide] (HELM PEPTIDE1{H.[O=C(C1(N[*:1])CCC1)[*:2]].Q.G.T.F.T.S.D.L.S.K.Y.L.E.S.R.R.A.R.E.F.V.Q.W.L.I.K.T.[am]}|PEPTIDE2{[O=C(O)CCCCCCCCCCCCCCCCC(=O)[*:2]].[gGlu].[gGlu].S.G.E.S.G}$PEPTIDE1,PEPTIDE2,28:R3-8:R2$$$V2.0), the “ThT Assay Lag time (h) [Assay (III), pH 7.5]” value in data set [2] is listed as 16.0 h. The EC50 in data set [1] worked out at 5 pM.
In the same order, the values of `CC[C@H](C)[C@H](NC(=O)[C@H](CC(C)C)NC(=O)[C@H](Cc1c[nH]c2ccccc12)NC(=O)[C@H](CCC(N)=O)NC(=O)[C@@H](NC(=O)[C@H](Cc1ccccc1)NC(=O)[C@H](CCC(=O)O)NC(=O)[C@H](CCCNC(=N)N)NC(=O)[C@H](C)NC(=O)[C@H](CCCNC(=N)N)NC(=O)[C@H](CCCNC(=N)N)NC(=O)[C@H](CO)NC(=O)[C@H](CCC(=O)O)NC(=O)[C@H](CC(C)C)NC(=O)[C@H](Cc1ccc(O)cc1)NC(=O)[C@H](CCCNC(=N)N)NC(=O)[C@H](CO)NC(=O)[C@H](CC(C)C)NC(=O)[C@H](CC(=O)O)NC(=O)[C@H](CO)NC(=O)[C@@H](NC(=O)[C@H](Cc1ccccc1)NC(=O)[C@@H](NC(=O)CNC(=O)[C@H](CCC(N)=O)NC(=O)C1(NC(=O)[C@@H](N)Cc2c[nH]cn2)CCC1)[C@@H](C)O)[C@@H](C)O)C(C)C)C(=O)N[C@@H](CCCCNC(=O)CC[C@H](NC(=O)CC[C@H](NC(=O)COCCOCCNC(=O)COCCOCCNC(=O)CC[C@H](NC(=O)CC[C@H](NC(=O)CCCCCCCCCCCCCCCCC(=O)O)C(=O)O)C(=O)O)C(=O)O)C(=O)O)C(=O)N[C@H](C(N)=O)[C@@H](C)O` [Chem. 17, N^ε28-[(4S)-4-carboxy-4-[[(4S)-4-carboxy-4-[[2-[2 [2-[[2-[2-[2-[[(4S)-4-carboxy-4-[[(4S)-4-carboxy-4-(17-carboxyheptadecanoylamino)butanoyl]amino]butanoyl]amino]ethoxy]ethoxy]acetyl]amino]ethoxy]ethoxy]acetyl]amino]butanoyl]amino]butanoyl]-[Acb2,Leu10,Arg12,Glu15,Arg20,Glu21,Ile27,Lys28]-Glucagon amide] (H-H[Ac4c]QGTFTSDLSRYLESRRAREFVQWLIK([γGlu-γGlu-AEEA-AEEA-γGlu-γGlu-C18 diacid])T-NH2) are 12.3 h and 4 pM.
In the same order, the values of `CC[C@H](C)[C@H](NC(=O)[C@H](CC(C)C)NC(=O)[C@H](Cc1c[nH]c2ccccc12)NC(=O)[C@H](CCC(N)=O)NC(=O)[C@@H](NC(=O)[C@H](Cc1ccccc1)NC(=O)[C@H](CCC(=O)O)NC(=O)[C@H](CCCNC(=N)N)NC(=O)[C@H](C)NC(=O)[C@H](CCCNC(=N)N)NC(=O)[C@H](CCCNC(=N)N)NC(=O)[C@H](CO)NC(=O)[C@H](CCC(=O)O)NC(=O)[C@H](CC(C)C)NC(=O)[C@H](Cc1ccc(O)cc1)NC(=O)[C@H](CCCCN)NC(=O)[C@H](CO)NC(=O)[C@H](CC(C)C)NC(=O)[C@H](CC(=O)O)NC(=O)[C@H](CO)NC(=O)[C@@H](NC(=O)[C@H](Cc1ccccc1)NC(=O)[C@@H](NC(=O)CNC(=O)[C@H](CCC(N)=O)NC(=O)C1(NC(=O)[C@@H](N)Cc2c[nH]cn2)CCC1)[C@@H](C)O)[C@@H](C)O)C(C)C)C(=O)N[C@@H](CCCCNC(=O)COCCOCCNC(=O)COCCOCCNC(=O)CC[C@H](NC(=O)CC[C@H](NC(=O)CCCCCCCCCCCCCCCCC(=O)O)C(=O)O)C(=O)O)C(=O)N[C@H](C(N)=O)[C@@H](C)O` [Chem. 18, N^ε28-[2-[2-[2-[[2-[2-[2-[[(4S)-4-carboxy-4-[[(4S)-4-carboxy-4-(17-carboxyheptadecanoylamino)butanoyl]amino]butanoyl]amino]ethoxy]ethoxy]acetyl]amino]ethoxy]ethoxy]acetyl]-[Acb2,Leu10,Glu15,Arg20,Glu21,Ile27,Lys28]-Glucagon amide] (H-H[Ac4c]QGTFTSDLSKYLESRRAREFVQWLIK([AEEA-AEEA-γGlu-γGlu-C18 diacid])T-NH2) are 5.0 h and 4 pM.

These data come from patent US10570184B2, “GLP-1/glucagon receptor co-agonists for medical use” (Novo Nordisk A/S, priority 2014, dated 2020).
